From patent US20240277860A1, “CAMPTOTHECIN PEPTIDE CONJUGATES” (priority 2019, published 2024)
Like-named read-outs stand apart in the source and are kept apart here.

What was measured:
Format in all cases: cell-based
[1] = tested on: pancreatic cancer cells (BxPC3); experiment: In vitro potency, CellTiter-Glo growth inhibition, BxPC3; conditions: Homo sapiens, read-out: IC50 BxPC3
Protocol: (§1) In vitro potency was assessed on multiple cancer cell lines. All cell lines were authenticated by STR profiling at IDEXX Bioresearch and cultured for no more than 2 months after resuscitation. Cells cultured in log-phase growth were seeded for 24 hours in 96-well plates containing 150 μl RPMI 1640 supplemented with 20% FBS. Serial dilutions of antibody-drug conjugates in cell culture media were prepared at 4× working concentrations, and 50 μl of each dilution was added to the 96-well plates. Following addition of test articles, cells were incubated with test articles for 4 days at 37° C. After 96 hours, growth inhibition was assessed by CellTiter-Glo® (Promega, Madison, WI) and luminescence was measured on a plate reader. The IC50 value, determined in triplicate, is defined here as the concentration that results in 50% reduction in cell growth relative to untreated controls.
(§2) In the following Tables IC50 values for ADCs and campthothecin free drugs are given in ng/mL and […] concentrations, respectively. Cell viability was determined by CellTiter-Glo staining after 96 h exposure to ADC. ND=Not Determined. Ag1 is an antibody targeting a ubiquitous and readily internalizable antigen on cancer cells.

[2] = tested on: Burkitt's lymphoma cells (Ramos); experiment: In vitro potency, CellTiter-Glo growth inhibition, Ramos; conditions: Homo sapiens, 96 h, read-out: IC50 Ramos
Protocol: as §1, §2

[3] = tested on: MDR(−) acute promyelocytic leukemia cells (HL-60); experiment: In vitro potency, CellTiter-Glo growth inhibition, HL-60; conditions: Homo sapiens, read-out: IC50 HL-60
Protocol: as §1, §2

[4] = tested on: Hodgkin's lymphoma cells (L540cy); experiment: In vitro potency, CellTiter-Glo growth inhibition, L540cy; conditions: 96 h, read-out: IC50 L540cy
Protocol: as §1, §2

[5] = tested on: multiple myeloma cells (MM.1R); experiment: In vitro potency, CellTiter-Glo growth inhibition, MM.1R; conditions: 96 h, read-out: IC50 MM.1R
Protocol: as §1, §2

[6] = tested on: melanoma cells (SK-MEL-5); experiment: In vitro potency, CellTiter-Glo growth inhibition, SK-MEL-5; conditions: Homo sapiens, read-out: IC50 SK-MEL-5
Protocol: as §1, §2

[7] = tested on: B-lymphocyte cancer cells (SU-DHL-4); experiment: In vitro potency, CellTiter-Glo growth inhibition, SU-DHL-4; conditions: Homo sapiens, read-out: IC50 SU-DHL-4
Protocol: as §1, §2

[8] = tested on: B-lymphocyte cancer cells (U266); experiment: In vitro potency, CellTiter-Glo growth inhibition, U-266; conditions: Homo sapiens, read-out: IC50 U-266
Protocol: as §1, §2

[9] = tested on: MDR(+) acute promyelocytic leukemia cells (HL60/RV); experiment: In vitro potency, CellTiter-Glo growth inhibition, HL60/RV; conditions: Homo sapiens, read-out: IC50 HL60/RV
Protocol: as §1, §2

[10] = tested on: acute myeloid leukemia cells (MOLM13); experiment: In vitro potency, CellTiter-Glo growth inhibition, MOLM-13; conditions: Homo sapiens, read-out: IC50 MOLM-13
Protocol: as §1, §2

[11] = tested on: renal carcinoma cells (786-O); experiment: In vitro potency, CellTiter-Glo growth inhibition, 786-O; conditions: Homo sapiens, read-out: IC50 786-O
Protocol: as §1, §2

[12] = BXPC-3, camptothecin free drugs, 96 h, CellTiter-Glo
[13] = camptothecin free drugs, CellTiter-Glo
[14] = HL-60, camptothecin free drugs, 96 h, CellTiter-Glo
[15] = SK-MEL-5, camptothecin free drugs, 96 h, CellTiter-Glo
[16] = SU-DHL-4, camptothecin free drugs, 96 h, CellTiter-Glo
[17] = U-266, camptothecin free drugs, 96 h, CellTiter-Glo
[18] = MOLM-13, camptothecin free drugs, 96 h, CellTiter-Glo
[19] = 786-0, camptothecin free drugs, 96 h, CellTiter-Glo

Row | SMILES | IC50 ([1]; BXPC-3, 96 h) [µM] | IC50 [2] [µM] | IC50 ([3]; HL-60, 96 h) [µM] | IC50 [4] [µM] | IC50 [5] [µM] | IC50 ([6]; SK-MEL-5, 96 h) [µM] | IC50 ([7]; SU-DHL-4, 96 h) [µM] | IC50 ([8]; U-266, 96 h) [µM] | IC50 ([9]; HL-60, 96 h) [µM] | IC50 ([10]; MOLM-13, 96 h) [µM] | IC50 ([11]; 786-0, 96 h) [µM] | IC50 [1, 12] [µM] | IC50 [2, 13] [µM] | IC50 [3, 14] [µM] | IC50 [4, 13] [µM] | IC50 [5, 13] [µM] | IC50 [6, 15] [µM] | IC50 [7, 16] [µM] | IC50 [8, 17] [µM] | IC50 [9, 14] [µM] | further results
1 | CC[C@@]1(O)C(=O)OCc2c1cc1n(c2=O)Cc2c-1nc1cc3c(cc1c2CNC(=O)[C@@H](N)CCSC)OCO3 [Compound 3e] | 0.019 | 0.004 | 0.092 | 0.013 | 0.006 | 0.027 | 0.005 | 0.012 | 0.37 | 0.016 | > 1 |  |  |  |  |  |  |  |  |  | 
2 | CC[C@@]1(O)C(=O)OCc2c1cc1n(c2=O)Cc2c-1nc1cc3c(cc1c2CNC(=O)[C@@H](N)Cc1c[nH]c2ccccc12)OCO3 [Compound 3n] |  |  |  |  |  |  |  |  |  |  |  | 0.143 | 0.018 | 0.526 | 0.185 | 0.074 | 0.33 | 0.027 | 0.062 | > 1 | IC50 [10, 18]: 0.08 µM; IC50 [11, 19]: 0.083 µM
3 | CC[C@@]1(O)C(=O)OCc2c1cc1n(c2=O)Cc2c-1nc1cc3c(cc1c2CNC(=O)[C@@H](N)CCCCN)OCO3 [Compound 3h] | 0.042 | 0.012 | 0.552 | 0.007 | 0.013 | 0.06 | 0.014 | 0.036 | 0.128 | 0.097 | > 1 |  |  |  |  |  |  |  |  |  | 
4 | CC[C@@]1(O)C(=O)OCc2c1cc1n(c2=O)Cc2c-1nc1cc3c(cc1c2CNC(=O)[C@@H](N)C(C)C)OCO3 [Compound 3b] | 0.012 | 0.001 | 0.023 | 0.006 | 0.004 | 0.014 | 0.002 | 0.008 | 0.857 | 0.005 | > 1 |  |  |  |  |  |  |  |  |  | 
5 | CC[C@@]1(O)C(=O)OCc2c1cc1n(c2=O)Cc2c-1nc1cc3c(cc1c2CNC(=O)[C@@H](N)CC(=O)O)OCO3 [Compound 3j] | 0.648 | 0.099 | > 1 | 0.687 | 0.318 | 0.91 | 0.145 | 0.436 | > 1 | 0.588 | 0.026 |  |  |  |  |  |  |  |  |  | 
6 | CC[C@@]1(O)C(=O)OCc2c1cc1n(c2=O)Cc2c-1nc1cc3c(cc1c2CNC(=O)[C@@H](N)CCC(=O)O)OCO3 [Compound 3k] |  |  |  |  |  |  |  |  |  |  |  | > 1 | 0.451 | > 1 | 0.415 | 0.576 | > 1 | 0.667 | > 1 | > 1 | IC50 [10, 18]: > 1 µM; IC50 [11, 19]: 0.021 µM
7 | CC[C@@]1(O)C(=O)OCc2c1cc1n(c2=O)Cc2c-1nc1cc3c(cc1c2CNC(=O)[C@@H](N)CC(C)C)OCO3 [Compound 3] | 0.009 | 0.002 | 0.03 | 0.005 | 0.004 | 0.015 | 0.003 | 0.006 | 0.194 | 0.008 | > 1 |  |  |  |  |  |  |  |  |  | 
8 | CC[C@@]1(O)C(=O)OCc2c1cc1n(c2=O)Cc2c-1nc1cc3c(cc1c2CNC(=O)[C@@H](N)Cc1ccccc1)OCO3 [Compound 3f] |  |  |  |  |  |  |  |  |  |  |  | 0.039 | 0.004 | 0.088 | 0.034 | 0.009 | 0.045 | 0.005 | 0.017 | > 1 | IC50 [10, 18]: 0.014 µM; IC50 [11, 19]: > 1 µM
9 | CC[C@@]1(O)C(=O)OCc2c1cc1n(c2=O)Cc2c-1nc1cc3c(cc1c2CNC(=O)[C@H](C)N)OCO3 [Compound 3a] | 0.042 | 0.006 | 0.106 | 0.012 | 0.008 | 0.049 | 0.008 | 0.02 | 0.416 | 0.023 | 0.381 |  |  |  |  |  |  |  |  |  | 
10 | CC[C@@]1(O)C(=O)OCc2c1cc1n(c2=O)Cc2c-1nc1cc3c(cc1c2CNC(=O)C(C)(C)N)OCO3 [Compound 3d] | 0.01 | 0.001 | 0.025 | 0.004 | 0.003 | 0.014 | 0.003 | 0.004 | 0.84 | 0.005 | > 1 |  |  |  |  |  |  |  |  |  | 
11 | CC[C@@]1(O)C(=O)OCc2c1cc1n(c2=O)Cc2c-1nc1cc3c(cc1c2CNC(=O)[C@@H](N)Cc1c[nH]cn1)OCO3 [Compound 3i] |  |  |  |  |  |  |  |  |  |  |  | 0.331 | 0.197 | > 1 | 0.321 | 0.147 | 0.414 | 0.255 | 0.452 | > 1 | IC50 [10, 18]: 0.996 µM; IC50 [11, 19]: 0.022 µM
12 | CC[C@@]1(O)C(=O)OCc2c1cc1n(c2=O)Cc2c-1nc1cc3c(cc1c2CNC(=O)[C@@H](N)CCC(N)=O)OCO3 [Compound 3m] | 0.16 | 0.034 | 0.823 | 0.076 | 0.03 | 0.208 | 0.071 | 0.086 | > 1 | 0.125 | 0.051 |  |  |  |  |  |  |  |  |  | 
13 | CC[C@@]1(O)C(=O)OCc2c1cc1n(c2=O)Cc2c-1nc1cc3c(cc1c2CNC(=O)[C@@H](N)[C@@H](C)O)OCO3 [Compound 3l] | 0.064 | 0.008 | 0.298 | 0.027 | 0.022 | 0.109 | 0.016 | 0.057 | > 1 | 0.045 | > 1 |  |  |  |  |  |  |  |  |  | 
14 | CC[C@@]1(O)C(=O)OCc2c1cc1n(c2=O)Cc2c-1nc1cc3c(cc1c2CNC(=O)[C@@H](N)CCCNC(=N)N)OCO3 [Compound 3g] |  |  |  |  |  |  |  |  |  |  |  | 0.018 | 0.006 | 0.191 | 0.004 | 0.006 | 0.034 | 0.006 | 0.015 | 0.051 | IC50 [10, 18]: 0.057 µM; IC50 [11, 19]: > 1 µM
